Like-named read-outs stand apart in the source and are kept apart here.
System: C. elegans
[1] = Table S2, C. elegans SS assay, 110 μM, 0 h, averages of 4 data points
[2] = Table S2, C. elegans SS assay, 110 μM, 24 h, averages of 4 data points

| Structure (SMILES) | Percentage of motility inhibition 0 h [1] | Percentage of motility inhibition 24 h [2] | Percentage of motility inhibition 0 h (110 µM) | Percentage of motility inhibition 24 h (110 µM) |
| --- | --- | --- | --- | --- |
| CC(C)=CCc1cc(C(=O)/C=C/c2ccc(O)cc2)c(O)cc1O [Bavachalcone] | 39% | 18% |  |  |
| Cc1c(O)c(C)c2occ(Cc3ccc4c(c3)OCO4)c(=O)c2c1O [Methylophiopogonone A] | 0% | 0% |  |  |
| CCCc1ncc(C[n+]2ccccc2C)c(N)n1.Cl.[Cl-] [Amprolium (hydrochloride)] | 12% | 0% |  |  |
| CN1C[C@@H]2C[C@H]1CN2c1cc2c(cc1F)c(=O)c(C(=O)O)cn2C1CC1.CS(=O)(=O)O [Danofloxacin (mesylate)] | 0% | 15% |  |  |
| O=C([O-])c1cc(/N=N/c2ccc(O)c(C(=O)[O-])c2)ccc1O.[Na+].[Na+] [Olsalazine (Disodium)] | 6% | 12% |  |  |
| Cc1nnc(SCC2=C(C(=O)[O-])N3C(=O)[C@@H](NC(=O)Cn4cnnn4)[C@H]3SC2)s1.[Na+] [Cefazolin (sodium)] | 14% | 0% |  |  |
| CN1c2ccccc2C(=O)N2CCc3c([nH]c4ccccc34)[C@@H]21 (racemic) [(±)‐Evodiamine] | 0% | 12% |  |  |
| C/C1=C/CC[C@H](C)C(=O)C[C@@H](C(C)C)C(=O)C1 [Curdione] | 7% | 22% |  |  |
| COC(=O)N[C@H](C(=O)N1CC2(CC2)C[C@H]1c1nc(-c2ccc3c(c2)C(F)(F)c2cc(-c4ccc5[nH]c([C@@H]6[C@H]7CC[C@H](C7)N6C(=O)[C@@H](NC(=O)OC)C(C)C)nc5c4)ccc2-3)c[nH]1)C(C)C [Ledipasvir (acetone)] | 14% | 4% |  |  |
| C[C@@H]1NC(=O)N[C@@H]1CCCCCC(=O)O [D‐Desthiobiotin] | 18% | 4% |  |  |
| CC(C)CCC[C@@H](C)[C@H]1CC[C@H]2[C@@H]3C(=O)C=C4C[C@@H](O)CC[C@]4(C)[C@H]3CC[C@]12C [7-Ketocholesterol] | 1% | 27% |  |  |
| C=C1CCC2C(C=C(C)C(=O)C3(OC(C)=O)CC(C)C(OC(=O)c4ccccc4)C3C1OC(C)=O)C2(C)C (stereo not shown) [5,15-Diacetyl-3-benzoyllathyrol] | 30% | 32% |  |  |
| COc1cc([C@@H]2Oc3c(O)cc([C@H]4Oc5cc(O)cc(O)c5C(=O)[C@@H]4O)cc3[C@H]2CO)ccc1O [Silychristin] | 33% | 2% |  |  |
| CC(C)(O)[C@@H]1CC[C@](C)([C@H]2[C@@H](O)C[C@@]3(C)[C@@H]4C[C@H](O)[C@H]5C(C)(C)[C@@H](O)CC[C@@]56C[C@@]46CC[C@]23C)O1 [Cycloastragenol] | 8% | 31% |  |  |
| C[C@@H]1CC[C@]2(C(=O)O[C@@H]3O[C@H](CO)[C@@H](O)[C@H](O)[C@H]3O)CC[C@]3(C)C(=CC[C@@H]4[C@@]5(C)C[C@@H](O)[C@H](O)[C@@](C)(CO)[C@@H]5CC[C@]43C)[C@@H]2[C@]1(C)O [Niga-ichigoside F1] | 0% | 1% |  |  |
| CCC(C)C1NC(=O)C(C)NC1=O (stereo not shown) [Cyclo(Ile‐Ala)] | 16% | 22% |  |  |
| CN1C2=C3N=c4ccccc4=C3CCN2C(=O)c2ccccc21.Cl [Dehydroevodiamine (hydrochloride)] | 8% | 1% |  |  |
| c1cncc([C@@H]2CCCCN2)c1 (racemic) [(±) Anabasine] | 3% | 0% |  |  |
| C=C(C(=O)O)[C@@H]1CC[C@@]2(C)CCCC(=C)[C@]2(O)C1 [5α-Hydroxycostic acid] | 13% | 18% |  |  |
| C[C@]1(O)C[C@@H](O)[C@@H]2C(C(=O)O)=CO[C@@H](O[C@@H]3O[C@H](CO)[C@@H](O)[C@H](O)[C@H]3O)[C@@H]21 [Shanziside] | 1% | 4% |  |  |
| O=C(O)[C@H]1O[C@@H](Oc2cc(-c3cc(=O)c4c(O)cc(O)cc4o3)ccc2O)[C@H](O)[C@@H](O)[C@@H]1O [Luteolin‐3‐O‐beta‐D‐glucuronide] | 0% | 26% |  |  |
| CC1=NCCc2c1[nH]c1cc(O)ccc21.Cl [Harmalol (hydrochloride)] | 17% | 2% |  |  |
| NC(=O)c1ccc[n+]([O-])c1 [Nicotinamide N‐oxide] |  |  | 14% | 32% |

From PMC11855827, “High-Throughput Screening of Five Compound Libraries for Anthelmintic Activity and Toxicity Leads to the Discovery of Two Flavonoid Compounds” (International Journal of Molecular Sciences, 2025)
